Laboratory results: patent US20060004197A1, “Sulfonamide-based compounds as protein tyrosine kinase inhibitors” (priority 2004, published 2006)

These molecules were tested against T1, Recombinant human Src (Homo sapiens, UniProt P12931) (assay: Src tyrosine kinase activity, poly E4Y / 32P-ATP phosphorylation assay). Conditions: Table 2, Formula I compounds; NI = no inhibition at 100 μg/mL.
T1 construct: made in house; host or cells: baculovirus-insect cell system
Assay type: biochemical
Experimental: Recombinant human Src was expressed using the baculovirus-insect cell system and purified as published (Budde et al., 1993 and 2000).
The tyrosine kinase activity of Src, Csk and FGFr was determined using poly E4Y and ^32P-ATP. Briefly, enzymes were assayed in a reaction mixture consisting of 0.15 M EPPS-NaOH (pH 8.0) with 6 mM MgCl2, 0.2 mM γ^32P-ATP (0.2-0.4 mCi/μmol), 10% glycerol, 0.1% Triton X-100, and poly E4Y. Poly E4Y is a synthetic peptide whose phosphorylation is measured in this assay by the addition of the radioactively labeled phosphate from the ATP (Budde et al., 1995). […] When ATP was varied (0, 50, 100 and 250 μM), poly E4Y was kept constant at 150 μg/ml.

T1 sequence (P12931 whole entry): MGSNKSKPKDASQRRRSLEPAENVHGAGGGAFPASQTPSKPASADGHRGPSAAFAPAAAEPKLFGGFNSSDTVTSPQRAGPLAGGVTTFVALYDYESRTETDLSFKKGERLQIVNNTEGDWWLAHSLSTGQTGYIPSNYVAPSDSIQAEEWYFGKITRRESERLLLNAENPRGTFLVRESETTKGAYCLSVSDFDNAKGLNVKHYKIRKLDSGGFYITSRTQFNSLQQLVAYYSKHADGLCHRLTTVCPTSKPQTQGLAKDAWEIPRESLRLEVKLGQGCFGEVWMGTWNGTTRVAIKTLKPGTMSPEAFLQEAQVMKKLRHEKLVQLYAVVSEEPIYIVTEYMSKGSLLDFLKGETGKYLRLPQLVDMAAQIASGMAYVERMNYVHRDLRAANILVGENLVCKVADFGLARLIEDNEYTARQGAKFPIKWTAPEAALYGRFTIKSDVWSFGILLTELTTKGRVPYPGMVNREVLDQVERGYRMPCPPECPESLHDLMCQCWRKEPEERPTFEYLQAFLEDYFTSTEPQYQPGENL

Row | IC50 [µM] | SMILES
1 | > 176 | Cc1ccc(S(=O)(=O)Nc2cc(NCc3cccnc3)c([N+](=O)[O-])cc2NS(=O)(=O)c2ccc(C)cc2)cc1 [Compound 9d, N-[5-nitro-4-[(pyridin-3-ylmethyl)-amino]-2-(4-toluenesulfonylamino)-phenyl]-4-toluenesulfonamide]
2 | 54 | Cc1ccc(S(=O)(=O)Nc2cc(NCc3ccccc3Cl)c([N+](=O)[O-])cc2NS(=O)(=O)c2ccc(C)cc2)cc1 [Compound 9g, N-[4-(2-chloro-benzylamino)-5-nitro-2-(4-toluenesulfonylamino)-phenyl]-4-toluenesulfonamide]

Same assay, conditions: Table 2; compound at 15 ug/mL; read-out: % Inhibition at 15 ug/mL Src (%)

Row | inhibition at 15 µg/mL [%] | SMILES
3 | 2 | Cc1ccc(S(=O)(=O)Nc2cc(N3CCN(C)CC3)c([N+](=O)[O-])cc2NS(=O)(=O)c2ccc(C)cc2)cc1 [Compound 9b, N-[4-(4-methyl-piperazin-1-yl)-5-nitro-2-(4-toluenesulfonylamino)-phenyl]-4-toluenesulfonamide]
4 | 15 | Cc1ccc(S(=O)(=O)Nc2cc(N3CCSCC3)c([N+](=O)[O-])cc2NS(=O)(=O)c2ccc(C)cc2)cc1 [Compound 9c, N-[5-nitro-4-(thiomorpholin-4-yl)-2-(4-toluenesulfonylamino)-phenyl]-4-toluenesulfonamide]
5 | 15 | Cc1ccc(S(=O)(=O)Nc2cc(NCc3ccccn3)c([N+](=O)[O-])cc2NS(=O)(=O)c2ccc(C)cc2)cc1 [Compound 9e, N-[5-nitro-4-[(pyridin-2-ylmethyl)-amino]-2-(4-toluenesulfonylamino)-phenyl]-4-toluenesulfonamide]
6 | 17 | COc1ccc(CNc2cc(NS(=O)(=O)c3ccc(C)cc3)c(NS(=O)(=O)c3ccc(C)cc3)cc2[N+](=O)[O-])cc1 [Compound 9f, N-[4-(4-methoxy-benzylamino)-5-nitro-2-(4-toluenesulfonylamino)-phenyl]-4-toluenesulfonamide]
7 | 65 | Cc1ccc(S(=O)(=O)Nc2cc(NCc3ccccc3Cl)c([N+](=O)[O-])cc2NS(=O)(=O)c2ccc(C)cc2)cc1 [Compound 9g, N-[4-(2-chloro-benzylamino)-5-nitro-2-(4-toluenesulfonylamino)-phenyl]-4-toluenesulfonamide]
8 | 22 | Cc1ccc(S(=O)(=O)Nc2cc(NCC3CCCCC3)c([N+](=O)[O-])cc2NS(=O)(=O)c2ccc(C)cc2)cc1 [Compound 9h, N-[4-(cyclohexylmethyl-amino)-5-nitro-2-(4-toluenesulfonylamino)-phenyl]-4-toluenesulfonamide]
9 | 18 | Cc1ccc(S(=O)(=O)Nc2cc(NCC3(O)CCCCC3)c([N+](=O)[O-])cc2NS(=O)(=O)c2ccc(C)cc2)cc1 [Compound 9i, N-[4-(1-hydroxy-cyclohexylmethyl-amino)-5-nitro-2-(4-toluenesulfonylamino)-phenyl]-4-toluenesulfonamide]
10 | 4 | Cc1ccc(S(=O)(=O)Nc2cc(NC3CCCCC3)c([N+](=O)[O-])cc2NS(=O)(=O)c2ccc(C)cc2)cc1 [Compound 9j, N-[4-cyclohexylamino-5-nitro-2-(4-toluenesulfonylamino)-phenyl]-4-toluenesulfonamide]
11 | 13 | Cc1ccc(S(=O)(=O)Nc2cc(NCCCc3cn[nH]c3C)c([N+](=O)[O-])cc2NS(=O)(=O)c2ccc(C)cc2)cc1 [Compound 9k, N-[4-[3-(5-methyl-1H-pyrazol-4-yl)-propylamino]-5-nitro-2-(4-toluenesulfonylamino)-phenyl]-4-toluenesulfonamide]

Same assay, conditions: Table 2; compound at 50 μg/mL (starred values); read-out: % Inhibition Src (%), * = assayed at 50 μg/mL

Row | inhibition at 50 µg/mL [%] | SMILES
12 | 13 | Cc1ccc(S(=O)(=O)Nc2cc(N3CCOCC3)c([N+](=O)[O-])cc2NS(=O)(=O)c2ccc(C)cc2)cc1 [Compound 9a, N-[4-(morpholin-4-yl)-5-nitro-2-(4-toluenesulfonylamino)-phenyl]-4-toluenesulfonamide]
13 | 19 | Cc1ccc(S(=O)(=O)Nc2cc(NCc3cccnc3)c([N+](=O)[O-])cc2NS(=O)(=O)c2ccc(C)cc2)cc1 [Compound 9d, N-[5-nitro-4-[(pyridin-3-ylmethyl)-amino]-2-(4-toluenesulfonylamino)-phenyl]-4-toluenesulfonamide]

Same assay, conditions: Table 3; compound at 15 μg/mL; read-out: % Inhibition at 15 μg/mL Src (%)

Row | inhibition at 15 µg/mL [%] | SMILES
14 | 19 | C=CCOc1ccc(NS(=O)(=O)c2ccc(C)cc2)c(NS(=O)(=O)c2ccc(C)cc2)c1 [Compound 12cc, N-[4-allyloxy-2-(4-toluenesulfonylamino)-phenyl]-4-toluenesulfonamide]
15 | 36 | Cc1ccc(S(=O)(=O)Nc2ccc(OCCCCCCCCO)cc2NS(=O)(=O)c2ccc(C)cc2)cc1 [Compound 12dd, N-[4-(8-hydroxy-octyloxy)-2-(4-toluenesulfonylamino)-phenyl]-4-toluenesulfonamide]
